EC50, IC50 and AC50 data for seven compounds are collected here from ChEMBL document CHEMBL1201862, “PubChem BioAssay data set” (2004).

Calls of active or inactive are those of the source.

In general, EC50 refers to the concentration giving half of the maximal effect. As a reminder, the AC50 is the midpoint of the concentration-response curve, whichever way the signal moves.

Experiment [1] can be described thus: viability of HCT116 lacking mutant beta-catenin – cell-based, human colon tumor, dose response (AID 1045).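 Note: HCT116 colon tumor cells with beta catenin knocked out; cells exposed to compound for 60 hours.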 It is filed as functional.
Experiment [2] can be described thus: IC50 of Artemis nuclease activity blockers – biochemical, fluorescence intensity, dose response (AID 720701).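 Note: Artemis endonuclease enzyme.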 It is filed as functional.
For experiment [3], the target named is T1, Tyrosine-protein phosphatase non-receptor type 22 (Homo sapiens, UniProt Q9Y2R2).
T1 sequence (Q9Y2R2 whole entry): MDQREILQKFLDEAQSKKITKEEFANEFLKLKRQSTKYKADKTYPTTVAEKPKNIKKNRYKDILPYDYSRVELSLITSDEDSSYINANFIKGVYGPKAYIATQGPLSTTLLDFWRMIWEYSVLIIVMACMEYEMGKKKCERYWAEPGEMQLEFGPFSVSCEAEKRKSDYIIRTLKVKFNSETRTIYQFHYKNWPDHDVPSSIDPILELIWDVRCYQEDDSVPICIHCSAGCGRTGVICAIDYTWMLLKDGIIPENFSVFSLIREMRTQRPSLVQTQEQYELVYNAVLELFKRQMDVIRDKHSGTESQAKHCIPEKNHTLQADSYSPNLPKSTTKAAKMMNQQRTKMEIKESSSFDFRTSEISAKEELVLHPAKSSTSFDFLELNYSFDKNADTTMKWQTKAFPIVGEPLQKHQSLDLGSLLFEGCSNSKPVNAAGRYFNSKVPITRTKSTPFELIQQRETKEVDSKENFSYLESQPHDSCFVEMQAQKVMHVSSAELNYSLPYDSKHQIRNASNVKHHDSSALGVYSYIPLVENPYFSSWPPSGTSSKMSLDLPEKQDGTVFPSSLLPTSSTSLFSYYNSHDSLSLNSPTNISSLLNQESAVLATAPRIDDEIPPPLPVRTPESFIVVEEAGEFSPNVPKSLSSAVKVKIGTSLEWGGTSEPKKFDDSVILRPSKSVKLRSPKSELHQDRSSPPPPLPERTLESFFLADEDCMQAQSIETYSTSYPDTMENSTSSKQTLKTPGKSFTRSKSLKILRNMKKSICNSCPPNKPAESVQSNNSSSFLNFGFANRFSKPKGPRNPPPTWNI
Description: PubChem AID 2135.

In experiment [4] the target is T1, Tyrosine-protein phosphatase non-receptor type 22. Description: SAR LYP1 Fluorescent Assay using pCAP substrate for In Vitro dose response studies - Set 4. [Related pubchem assays (depositor defined):AID1779, AID1784]. In kind it is functional.
Experiment [5] shares this target. The experiment can be described thus: inhibition of lymphoid tyrosine phosphatase LYP – biochemical, pCAP fluorogenic substrate, fluorescence, set 3, SAR follow-up (AID 449727). In kind it is functional.
The target of experiment [6] is Serine/threonine-protein phosphatase PP1-alpha catalytic subunit (Homo sapiens, UniProt P62136). Description: inhibition of protein phosphatase 1 activity – biochemical, fluorescence, dose response (AID 2394).
For experiment [7], the target named is Estrogen receptor beta (Homo sapiens, UniProt Q92731).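 Note: recombinant ER-beta bound to coactivator SRC1 peptide in presence of estradiol agonist; inhibitors block coactivator peptide binding and lower the FRET signal.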
Experiment [8] addresses Albumin (Bos taurus, UniProt P02769). Description: Counterscreen for inhibitors of T-cell receptor (TCR)-CD3 interaction: Fluorescence-based biochemical high throughput dose response assay to identify inhibitors of T-cell receptor (TCR)-CD3 interaction using a TAMRA-labeled BSA probe. It is filed as functional. On the technique in general: Counterscreens check selectivity or assay interference.

Experiment [9] has as its target Probable nicotinate-nucleotide adenylyltransferase (Staphylococcus aureus (strain N315), UniProt P65502). In kind it is functional, Staphylococcus aureus subsp. aureus N315. The conditions noted are these: read-out: IC50_Mean.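 Note: confirmatory dose-response retesting of NadD inhibitor hits first found in an ultra-high-throughput screen.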
Experiment [10] addresses Troponin, cardiac muscle (Homo sapiens, UniProt P19429+P45379+P63316). The experiment can be described thus: Fluorescence-based biochemical high throughput dose response assay for activators of the calcium sensitivity of cardiac Regulated Thin Filaments (RTF). [Related pubchem assays (depositor defined):AID493008, AID493018, AID504382, AID504383]. In kind it is protein-complex assay.

The target in experiment [11] is Lysine-specific demethylase 4C (Homo sapiens, UniProt Q9H3R0). The experiment can be described thus: inhibition of JMJD2C H3K9me3 demethylation – biochemical, DELFIA europium, cherry-picked samples, dose response (AID 488835). In kind it is functional.
Experiment [12] deals with Dual specificity protein phosphatase 3 (Homo sapiens, UniProt P51452). Description: VHR phosphatase inhibition, dose response, selectivity assay for STEP inhibitor project, biochemical (AID 602374). The settings on record: read-out: IC50_Mean. It is filed as functional.
The target of experiment [13] is DNA (cytosine-5)-methyltransferase 1 (Homo sapiens, UniProt P26358). Description: inhibition of DNA methylation by DNMT1 – biochemical, fluorescent molecular beacon, confirmation (AID 602386). In kind it is functional.
Experiment [14] deals with T2, Aminopeptidase N (Plasmodium falciparum FcB1/Columbia, UniProt O96935).
T2 sequence (O96935 whole entry): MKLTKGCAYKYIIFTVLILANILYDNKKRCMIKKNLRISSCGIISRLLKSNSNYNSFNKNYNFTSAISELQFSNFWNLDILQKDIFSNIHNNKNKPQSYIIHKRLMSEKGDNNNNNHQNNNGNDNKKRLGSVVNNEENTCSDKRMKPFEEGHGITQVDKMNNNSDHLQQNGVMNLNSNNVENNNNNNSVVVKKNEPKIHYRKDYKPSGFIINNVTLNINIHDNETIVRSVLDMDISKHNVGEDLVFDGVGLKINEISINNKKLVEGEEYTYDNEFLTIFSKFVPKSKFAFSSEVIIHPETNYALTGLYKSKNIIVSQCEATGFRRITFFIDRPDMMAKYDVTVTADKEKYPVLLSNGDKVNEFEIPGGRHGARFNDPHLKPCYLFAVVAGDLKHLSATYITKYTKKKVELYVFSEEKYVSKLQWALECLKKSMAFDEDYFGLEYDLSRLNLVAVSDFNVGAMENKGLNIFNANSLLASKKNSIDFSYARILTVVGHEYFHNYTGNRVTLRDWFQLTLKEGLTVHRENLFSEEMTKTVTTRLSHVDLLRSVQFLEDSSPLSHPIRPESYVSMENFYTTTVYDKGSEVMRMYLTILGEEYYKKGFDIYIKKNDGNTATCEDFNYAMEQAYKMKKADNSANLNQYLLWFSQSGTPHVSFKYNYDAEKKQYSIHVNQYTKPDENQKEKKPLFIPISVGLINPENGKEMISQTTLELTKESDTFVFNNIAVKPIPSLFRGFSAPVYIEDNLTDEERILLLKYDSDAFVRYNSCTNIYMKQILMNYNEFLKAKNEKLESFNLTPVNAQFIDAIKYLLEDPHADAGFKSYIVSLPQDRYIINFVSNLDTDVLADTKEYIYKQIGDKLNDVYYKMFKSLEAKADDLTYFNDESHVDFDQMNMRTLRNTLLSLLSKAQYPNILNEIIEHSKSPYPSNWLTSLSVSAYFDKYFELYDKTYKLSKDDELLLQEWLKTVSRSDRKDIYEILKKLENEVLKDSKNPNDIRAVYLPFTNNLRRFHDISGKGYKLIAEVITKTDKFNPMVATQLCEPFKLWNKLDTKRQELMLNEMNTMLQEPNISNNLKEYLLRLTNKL
Description: malaria alanyl aminopeptidase activity blockers – biochemical, fluorogenic H-Leu-NHMec substrate, 1536-well (AID 1445). On the set-up: species or system Plasmodium falciparum 3D7, 3D7.

Sequence of Lysine-specific demethylase 4C (Q9H3R0 whole entry): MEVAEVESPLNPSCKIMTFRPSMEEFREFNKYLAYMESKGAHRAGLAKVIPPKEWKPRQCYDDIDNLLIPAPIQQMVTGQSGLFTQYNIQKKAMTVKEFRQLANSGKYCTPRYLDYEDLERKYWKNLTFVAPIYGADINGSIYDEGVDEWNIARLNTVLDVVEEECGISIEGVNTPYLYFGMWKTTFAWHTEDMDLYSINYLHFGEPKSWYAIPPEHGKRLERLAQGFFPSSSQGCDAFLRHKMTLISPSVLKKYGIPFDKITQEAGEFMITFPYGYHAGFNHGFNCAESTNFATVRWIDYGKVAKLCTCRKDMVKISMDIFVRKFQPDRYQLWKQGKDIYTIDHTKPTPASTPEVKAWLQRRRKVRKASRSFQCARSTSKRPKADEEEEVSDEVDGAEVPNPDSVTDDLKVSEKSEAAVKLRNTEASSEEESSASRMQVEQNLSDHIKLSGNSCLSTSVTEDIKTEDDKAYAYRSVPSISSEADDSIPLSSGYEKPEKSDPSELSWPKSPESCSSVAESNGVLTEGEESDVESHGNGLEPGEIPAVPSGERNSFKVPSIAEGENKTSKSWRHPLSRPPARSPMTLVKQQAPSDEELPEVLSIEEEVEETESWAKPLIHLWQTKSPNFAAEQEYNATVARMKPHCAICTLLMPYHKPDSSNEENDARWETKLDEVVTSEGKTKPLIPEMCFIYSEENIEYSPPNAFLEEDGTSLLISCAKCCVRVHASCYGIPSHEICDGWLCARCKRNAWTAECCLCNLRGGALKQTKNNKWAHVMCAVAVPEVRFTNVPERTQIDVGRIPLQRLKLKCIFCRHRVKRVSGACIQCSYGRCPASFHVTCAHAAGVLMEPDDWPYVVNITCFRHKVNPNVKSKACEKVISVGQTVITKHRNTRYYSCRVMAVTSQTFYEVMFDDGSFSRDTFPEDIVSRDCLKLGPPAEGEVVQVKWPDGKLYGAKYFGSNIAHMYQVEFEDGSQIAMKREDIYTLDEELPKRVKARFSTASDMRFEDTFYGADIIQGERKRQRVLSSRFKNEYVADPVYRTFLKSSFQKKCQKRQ
Sequence of Probable nicotinate-nucleotide adenylyltransferase (P65502 whole entry): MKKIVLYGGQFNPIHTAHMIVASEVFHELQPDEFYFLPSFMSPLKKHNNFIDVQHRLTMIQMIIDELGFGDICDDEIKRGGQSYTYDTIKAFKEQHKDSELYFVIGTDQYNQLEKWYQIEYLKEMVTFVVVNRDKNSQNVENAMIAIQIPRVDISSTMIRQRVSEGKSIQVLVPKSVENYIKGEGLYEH
Sequence of DNA (cytosine-5)-methyltransferase 1 (P26358 whole entry): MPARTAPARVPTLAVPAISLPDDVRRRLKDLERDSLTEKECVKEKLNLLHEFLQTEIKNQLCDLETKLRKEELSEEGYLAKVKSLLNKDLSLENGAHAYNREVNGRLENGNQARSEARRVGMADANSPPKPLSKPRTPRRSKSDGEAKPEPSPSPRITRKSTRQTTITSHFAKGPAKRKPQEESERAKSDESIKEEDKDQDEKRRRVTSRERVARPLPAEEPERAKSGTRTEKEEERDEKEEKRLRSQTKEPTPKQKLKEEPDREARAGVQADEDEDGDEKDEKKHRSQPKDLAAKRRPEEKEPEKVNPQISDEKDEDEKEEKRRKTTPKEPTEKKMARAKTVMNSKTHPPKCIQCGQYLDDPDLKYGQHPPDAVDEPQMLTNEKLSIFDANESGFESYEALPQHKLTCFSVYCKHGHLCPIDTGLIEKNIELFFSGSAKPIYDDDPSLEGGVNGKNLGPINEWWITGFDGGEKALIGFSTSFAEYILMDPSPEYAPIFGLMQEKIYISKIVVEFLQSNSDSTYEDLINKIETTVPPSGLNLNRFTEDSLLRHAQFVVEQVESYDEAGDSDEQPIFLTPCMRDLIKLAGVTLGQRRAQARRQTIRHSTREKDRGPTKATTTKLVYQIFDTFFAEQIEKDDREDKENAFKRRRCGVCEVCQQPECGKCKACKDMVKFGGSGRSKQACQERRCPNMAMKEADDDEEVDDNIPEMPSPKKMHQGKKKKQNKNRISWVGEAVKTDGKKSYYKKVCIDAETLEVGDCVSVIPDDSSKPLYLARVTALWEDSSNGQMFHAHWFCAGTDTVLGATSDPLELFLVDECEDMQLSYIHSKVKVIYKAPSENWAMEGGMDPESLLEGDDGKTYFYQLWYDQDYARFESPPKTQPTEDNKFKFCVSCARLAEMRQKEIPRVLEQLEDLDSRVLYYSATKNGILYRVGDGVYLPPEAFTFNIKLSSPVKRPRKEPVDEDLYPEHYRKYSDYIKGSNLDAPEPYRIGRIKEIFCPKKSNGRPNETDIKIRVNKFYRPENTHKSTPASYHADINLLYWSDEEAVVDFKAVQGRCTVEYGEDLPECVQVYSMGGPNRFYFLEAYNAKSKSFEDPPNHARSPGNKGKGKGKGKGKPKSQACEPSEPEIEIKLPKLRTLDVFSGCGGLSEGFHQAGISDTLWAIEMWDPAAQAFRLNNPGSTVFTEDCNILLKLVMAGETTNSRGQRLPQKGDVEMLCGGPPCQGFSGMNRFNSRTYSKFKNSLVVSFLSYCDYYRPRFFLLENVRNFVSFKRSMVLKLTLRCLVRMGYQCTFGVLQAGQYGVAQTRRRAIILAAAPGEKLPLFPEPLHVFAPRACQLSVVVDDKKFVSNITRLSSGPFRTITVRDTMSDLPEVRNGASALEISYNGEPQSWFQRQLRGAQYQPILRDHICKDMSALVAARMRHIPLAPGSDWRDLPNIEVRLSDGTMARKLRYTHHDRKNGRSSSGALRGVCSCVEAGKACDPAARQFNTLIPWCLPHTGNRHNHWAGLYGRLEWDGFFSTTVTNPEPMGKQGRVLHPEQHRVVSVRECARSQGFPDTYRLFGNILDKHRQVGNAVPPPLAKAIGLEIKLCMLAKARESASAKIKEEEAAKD
Sequence of Serine/threonine-protein phosphatase PP1-alpha catalytic subunit (P62136 whole entry): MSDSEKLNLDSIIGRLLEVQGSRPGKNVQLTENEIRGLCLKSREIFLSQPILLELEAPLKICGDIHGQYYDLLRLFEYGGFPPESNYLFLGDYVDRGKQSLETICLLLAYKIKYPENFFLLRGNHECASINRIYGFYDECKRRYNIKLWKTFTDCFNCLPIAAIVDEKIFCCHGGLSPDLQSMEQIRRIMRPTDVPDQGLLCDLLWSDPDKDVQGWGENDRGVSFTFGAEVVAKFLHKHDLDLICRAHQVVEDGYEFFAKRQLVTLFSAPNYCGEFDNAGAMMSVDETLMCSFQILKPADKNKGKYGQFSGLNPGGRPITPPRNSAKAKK
Sequence of Dual specificity protein phosphatase 3 (P51452 whole entry): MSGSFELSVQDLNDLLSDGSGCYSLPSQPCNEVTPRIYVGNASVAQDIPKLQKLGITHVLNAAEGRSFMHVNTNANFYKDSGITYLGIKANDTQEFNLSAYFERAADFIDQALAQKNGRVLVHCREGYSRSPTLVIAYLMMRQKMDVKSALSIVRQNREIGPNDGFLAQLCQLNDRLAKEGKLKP
Sequence of Estrogen receptor beta (Q92731 whole entry): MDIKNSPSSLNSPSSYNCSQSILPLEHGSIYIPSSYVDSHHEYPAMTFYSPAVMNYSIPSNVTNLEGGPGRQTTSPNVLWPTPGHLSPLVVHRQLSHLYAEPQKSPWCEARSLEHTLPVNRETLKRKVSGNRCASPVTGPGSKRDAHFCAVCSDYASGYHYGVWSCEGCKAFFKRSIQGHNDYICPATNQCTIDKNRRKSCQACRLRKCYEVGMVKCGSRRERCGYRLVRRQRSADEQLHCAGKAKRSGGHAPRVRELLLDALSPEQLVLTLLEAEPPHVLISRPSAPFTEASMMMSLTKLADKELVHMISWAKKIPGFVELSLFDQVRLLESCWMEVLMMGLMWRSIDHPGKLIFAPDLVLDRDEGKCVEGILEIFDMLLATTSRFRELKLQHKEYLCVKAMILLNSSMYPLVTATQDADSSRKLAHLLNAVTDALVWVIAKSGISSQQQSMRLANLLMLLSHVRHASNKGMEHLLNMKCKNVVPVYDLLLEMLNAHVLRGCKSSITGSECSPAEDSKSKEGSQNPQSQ
Sequence of Albumin (P02769 whole entry): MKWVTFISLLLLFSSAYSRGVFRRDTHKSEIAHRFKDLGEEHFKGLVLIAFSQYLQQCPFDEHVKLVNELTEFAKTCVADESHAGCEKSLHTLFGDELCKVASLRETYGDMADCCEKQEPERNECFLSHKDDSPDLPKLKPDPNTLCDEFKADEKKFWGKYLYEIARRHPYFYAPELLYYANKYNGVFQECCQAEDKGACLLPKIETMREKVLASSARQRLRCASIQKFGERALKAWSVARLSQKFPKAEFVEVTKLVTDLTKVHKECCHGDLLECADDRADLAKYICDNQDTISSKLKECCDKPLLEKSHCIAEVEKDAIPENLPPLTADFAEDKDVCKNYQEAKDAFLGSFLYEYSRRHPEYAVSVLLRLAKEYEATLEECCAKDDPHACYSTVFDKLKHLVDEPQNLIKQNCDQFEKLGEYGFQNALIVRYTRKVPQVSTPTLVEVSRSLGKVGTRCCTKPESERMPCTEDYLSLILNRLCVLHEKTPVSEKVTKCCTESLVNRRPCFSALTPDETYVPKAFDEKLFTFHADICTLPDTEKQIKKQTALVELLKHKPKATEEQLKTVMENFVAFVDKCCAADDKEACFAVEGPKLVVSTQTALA

In the case of `Cc1oc2c(c1C(=O)c1ccccc1)C(=O)C(=O)c1ccccc1-2`, in [1], the EC50 was 2260 nM (active). Moreover, the IC50 in [2] was 1480 nM (active).
With `O=C(O)COc1ccc(/C=N/NC(=O)c2ccc(-c3csc(Nc4ccc(Cl)cc4)n3)cc2)cc1`, the IC50 in experiment [3] was 113 nM (active); in experiment [4], 527 nM (active); in [5], 369 nM (active).
Take `O=C1CCCC2=C1C1(O)C(=O)c3ccccc3C1(O)O2` (centres undefined): the IC50 in experiment [6] is > 67000 nM (not active).
`COc1ccc(C(=O)Nc2nc3c(s2)Cc2cc(OC)ccc2-3)cc1`: in experiment [7], the IC50 was > 50000 nM (not active).
On to `Nc1ccc2nc3c(O)nc(S)nc3nc2c1`, for which the IC50 in experiment [8] was 25600 nM (inactive); in experiment [9] it was 17000 nM (active). The EC50 in [10] is 1140 nM (active).
For the compound `CSc1ccc(C=NNc2ccc(S(=O)(=O)Nc3ccccc3C(=O)O)cc2[N+](=O)[O-])cc1`, in experiment [11], the AC50 is 5430 nM (active). Moreover, the IC50 in [12] was 1270 nM (active); in experiment [13], 3260 nM (active).
As to `CC(/C=C1\SC(=S)N(NS(=O)(=O)c2ccccc2)C1=O)=C\c1ccccc1`, in experiment [14], the IC50 is 45400 nM (active).
